In US20210293825A1, “METHODS FOR PRECISION THERAPEUTIC TARGETING OF HUMAN CANCER CELL MOTILITY AND KITS THEREOF” (UNITED STATES GOVERNMENT AS REPRESENTED BY THE DEPARTMENT …, priority 2018, published 2021):
One block for each molecule: values may come before it.

Columns and labels:
[1] = system: human prostate, breast, colon and lung cancer cells; assay: Single cell migration (motility) assay; assay type: cell-based; conditions: PC3-M cells, 10 μM, three days
Source text: FIG. 1a is a schematic flow of probe synthesis and development strategy. […] Values are mean±SEM of a single experiment in replicates of N=4, with similar findings in multiple separate experiments (also N=4). […] Values are mean±SEM of a single experiment in replicates of N=24, with similar findings in a separate experiment (also N=24). *Denotes Student's t test P value <0.05, compared to controls. […] Values are mean±SEM from N>2 separate experiments, each in replicates of N=3. […] Values are the mean±SD number of total, CFU-GM, CFU-GEMM or BFU-E colonies at 14 days after treatment with KBU2046, from a single experiment in replicates of N=2. […] Values are the mean±SD of a single experiment, with similar results seen in a separate experiment, both in replicates of N=2.
Cell Migration Assays. Single cell motility assays were conducted by adding 10^4 cells to 35 mm tissue culture dishes (BD Falcon) coated with collagen I (BD Biosciences), incubating at 37° C. in 5% CO2, performing time-lapse imaging using a Biostation (Nikon Instruments), tracking the path of N≥35 cells using ImageJ software and the Manual Tracker plug-in, and using Chemotaxis and Migration Tool plug-in for data analysis.

[2] = system: array of over 9,000 human proteins; assay: ProtoArray Human Protein Microarray binding assay
Protocol: (§1) PC3-M cells were pre-treated with 10 μM KBU2046 or with KBU2046-biotin for three days, and single cell motility assays conducted. Data are the mean±SEM of a single experiment of N≥24 cells; * denotes Student's 2-sided t-test p-value </=0.05 compared to control. […] PC3-M cells were labeled with 1 μM KBU2046-biotin+/−10 μM free KBU2046, followed by detection with FITC-streptavidin, and visualization by fluorescent microscopy (with equal exposure times). […] KBU2046-biotin was hybridized to ProtoArray® Human Protein Microarray's at 0.5 and 10 μM with and without 10 fold excess free KBU2046.
Protein Microarray Binding Assay. The ProtoArray® assay, using the Human Protein Microarray platform, was performed by Invitrogen.
First, the positive control used in protein arrays was staurosporine.

PC3-M cells [3] = assay: KBU2046-biotin labelling of cells (FITC-streptavidin); assay type: cell-based, human; conditions: 1 μM KBU2046-biotin +/- 10 μM free KBU2046
Protocol: as §1

recombinant CSRP1 = recombinant CSRP1 (Homo sapiens, UniProt P21291); assay: Pull down of recombinant CSRP1 by KBU2046-biotin; assay type: binding
recombinant CSRP1, sequence (P21291 whole entry): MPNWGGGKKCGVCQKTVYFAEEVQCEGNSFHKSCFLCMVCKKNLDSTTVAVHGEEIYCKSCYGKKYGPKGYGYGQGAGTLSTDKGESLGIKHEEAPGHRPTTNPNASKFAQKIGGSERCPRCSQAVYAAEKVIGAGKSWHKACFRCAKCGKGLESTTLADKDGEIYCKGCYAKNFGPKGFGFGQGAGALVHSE
Protocol: This yielded 3 proteins, shown in table, for an initial hit rate of 0.03%. Next, free KBU2046 was needed to inhibit binding by >75%. Of the two remaining candidates, isovaleryl-CoA dehydrogenase (ICD) was eliminated. […] Cysteine and glycine-rich protein 1 (CSRP1) was deemed the top protein, though its binding characteristics at 10 μM+free KBU2046 were similar to ICD, albeit not as extreme.

PC3-M cells [4] = assay: Boyden chamber cell invasion assay, PC3-M cells; assay type: cell-based, human; conditions: 10 μM compound, 3 days
Protocol: Following the synthetic strategy outlined in FIG. 1a, 4′,5,7-trihydroxyisoflavone was used as the chemical scaffold. […] Note, demethylation within the cell cannot be predicted. Therefore, the loss of function was considered to be informative for methylated compounds. […] This adds further evidence of the importance of the C4′-hydroxyl for activity. […] For cell invasion, PC3-M cells were treated with 10 μM compound for a total of 3 days, and cell invasion assays were run at the end of the 3 day period, in the presence of compound. Values are the mean±SEM of three separate experiments, each run in replicates of N=3. […] Values are the mean±SEM of a single experiment, in replicates of N=4, repeated at least once (also N=4). […] The initial structure-activity relationship (SAR) data informed the second round of compound synthesis. […] Compared to 4′,5,7-trihydroxyisoflavone, KBU2046 is non-planar, lacks hydroxyl groups, and particularly those that mediate ER binding, is halogen-substituted, and has a distinctly different biological profile. These characteristics place KBU2046 in a chemically distinct class, compared to the starting compound.
Cell Invasion Assays. Boyden chamber cell invasion assays were performed as previously described^9, using either denatured collagen (BD Biosciences) or type IV human collagen (BD Biosciences), with the experiments repeated, each in N=4 replicates. In some experiments, as indicated, cells were transfected with an expression plasmid, using Lipofectamine 2000™ (Invitrogen), or with siRNA, using DharmaFect Duo (Thermo Scientific) and co-transfected with β-Galactosidase (Plasmid pCMV⋅SPORT-βgal; Life Technology).
The initial round of synthesis was designed to examine the removal of individual chemical fragments. In this manner, the importance of these functional groups in mediating efficacy (inhibition of cell invasion) could be determined. […] Initial assays were performed with PC3 and PC3-M cells. However, as these studies yielded similar findings, subsequent screening assays utilized only PC3-M cells. In designing chemical synthetic routes, priority was given to efficacy and toxicity parameters. […] These additional design features included removal of fragments that mediated genistein binding to the estrogen receptor (ER), as determined by ER-genistein 3D x-ray crystal structures (Protein Data Base IDs: 1X7R and 1X7J, for crystal structures of ERα and ERβ with bound genistein, respectively). These features also included removal of chemical fragments that are considered to increase susceptibility to rapid metabolism, for example by the cytochrome P450 (CYP) pathway. The final feature involved incorporation of chemical characteristics previously shown to be associated with effective drugs and which together generally impart more favorable pharmacologic properties, including those described by Lipinski et al. (Lipinski, C. A. et al., Adv Drug Deliv Rev 46, 3-26 (2001)).

[5] = system: protein phosphorylation in PC3-M and PC3 cells; assay: KinomeView phospho-motif antibody screen; assay type: cell-based, human; conditions: 10 μM, 3 days, ±TGFβ
Source text: Seeking to identify KBU2046's biological target(s), alternative methods were pursued. The KinomeView® panel of antibodies (Cell Signaling Technology, Inc.) detect established protein phosphorylation motifs, and were used to probe for KBU2046-induced changes in protein phosphorylation (FIG. 4a and FIG. 17). Phosphoprotein changes that met the following criteria were prioritized: were induced in cells in vitro as well as in tumors of treated mice (from FIG. 2a), that counteracted transforming growth factor β (TGFβ)-induced effects, and that were reproducible. TGFβ is ubiquitous in vivo, is known to increase PCa cell invasion (Huang, X. et al., Cancer Research 65, 3470-8 (2005)), and KBU2046's anti-invasion efficacy remains in spite of TGFβ-stimulated increases in cell invasion (FIG. 18). Genistein was evaluated under identical treatment conditions for comparison. […] In tumors of treated animals KBU2046 had this same effect on this 83 kDa protein band (green arrow in FIG. 17a). The high molecular selectivity of KBU2046 was further supported by its failure to inhibit over 400 different protein kinases and 20 phosphatases examined, in three different in vitro assay systems (see, Example 1).
Phospho-proteomic Analysis. The Kinoview™ and PhosphoScan™ assays were performed by Cell Signaling Technology Inc. […]

[6] = system: human prostate cells (PC3, PC3-M, 1532NPTX, 1542NPTX, 1532CPTX, 1542CPTX); conditions: nanomolar concentrations; cited from earlier work
[7] = system: human PCa PC3-M cell orthotopic implants; conditions: murine orthotopic model; cited from earlier work
MKK4 = molecular target: T1, MKK4 (Homo sapiens, UniProt P45985, S257E/T261E); conditions: low nanomolar concentrations; cited from earlier work
T1 sequence (P45985 37-399 S257E/T261E): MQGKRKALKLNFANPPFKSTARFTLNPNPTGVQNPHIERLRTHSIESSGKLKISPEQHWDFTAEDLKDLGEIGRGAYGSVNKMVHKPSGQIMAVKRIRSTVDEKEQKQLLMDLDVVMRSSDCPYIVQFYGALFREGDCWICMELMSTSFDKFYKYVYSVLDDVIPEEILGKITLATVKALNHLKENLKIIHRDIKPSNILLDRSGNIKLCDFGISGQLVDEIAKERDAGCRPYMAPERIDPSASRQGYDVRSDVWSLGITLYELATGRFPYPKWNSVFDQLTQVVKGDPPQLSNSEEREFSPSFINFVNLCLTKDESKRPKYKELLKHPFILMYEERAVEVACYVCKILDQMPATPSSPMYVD

[8] = system: phosphorylation of p38 MAPK or of HSP27; conditions: cited from earlier work
[9] = system: matrix metalloproteinase 2 (MMP-2) expression; conditions: prospective human trial; cited from earlier work

binding to HSP90β and CDC37 on the protein arrays [2]: not bound
binding to protein arrays [2]: lack of binding
initial hit rate ([2]; 0.5 and 10 μM): 0.03%
number of proteins meeting binding criteria ([2]; 0.5 and 10 μM, absence of free KBU2046): 3
pull down of recombinant CSRP1 (recombinant CSRP1): no evidence of such was observed
Structure (SMILES): O=C(CCCC[C@@H]1SC[C@@H]2NC(=O)N[C@@H]21)NCCOCCOCCOCCOc1ccc2c(c1)OCC(c1ccc(F)cc1)C2=O (stereo partly drawn) [KBU2046-biotin]
single cell motility [1]: biologically active
labelling of cells (PC3-M cells [3]): labels permeablized cells in a manner that can be competed off

Structure (SMILES): O=c1c(-c2ccc(O)cc2)coc2cc(O)cc(O)c12 [genistein, 4′,5,7-trihydroxyisoflavone]
effect on cell invasion (PC3-M cells [4]): had anti-invasion efficacy
changes in protein phosphorylation [5]: induced widespread changes in protein phosphorylation
inhibition of human PCa cell invasion in vitro [6]: inhibit human prostate cancer (PCa) cell invasion in vitro
inhibition of metastasis [7]: inhibit
inhibition of MKK4 kinase activity (MKK4): inhibited the kinase activity
downstream phosphorylation of p38 MAPK and HSP27 [8]: inhibiting downstream phosphorylation of p38 MAPK
MMP-2 expression in prostate tissue [9]: downregulates matrix metalloproteinase 2 (MMP-2) expression in prostate tissue

Structure (SMILES): CN[C@@H]1C[C@H]2O[C@@](C)([C@@H]1OC)n1c3ccccc3c3c4c(c5c6ccccc6n2c5c31)C(=O)NC4 [staurosporine, reference compound]
number of proteins bound at levels >/=10 fold above background ([2]; positive control): 214
